Data reported in ChEMBL document CHEMBL1201862, “PubChem BioAssay data set” (2004).
Calls of active or inactive are those of the source.

How the values were obtained:
[1] = target: Apoptotic protease-activating factor 1 (Homo sapiens, UniProt O14727); assay type: functional
[2] = target: Glycogen synthase kinase-3 alpha (Homo sapiens, UniProt P49840); assay: Inhibition of Human GSK-3 alpha Activity Measured in Biochemical System Using Microfluidics - 2063-06_Inhibitor_Dose_DryPowder_Activity_Set2. [Related pubchem assays (depositor defined):AID2709]
[3] = target: Glycogen synthase kinase-3 beta (Homo sapiens, UniProt P49841); assay: Inhibition of Human GSK-3 beta Activity Measured in Biochemical System Using Microfluidics - 2063-05_Inhibitor_Dose_DryPowder_Activity_Set2. [Related pubchem assays (depositor defined):AID2709]
[4] = test system: INS1; assay: protection of INS-1E cells from cytokine death, dose response, ATP luminescence, dry powder (AID 488844); assay type: functional, cell-based; settings: Rattus norvegicus
[5] = test system: INS1; assay: protection from cytokine-driven beta-cell apoptosis, dose response, JC-1 fluorescence, INS-1E, dry powder, set 2 (AID 488867); assay type: functional, cell-based; settings: Rattus norvegicus
[6] = test system: INS1; assay: inhibitors of cytokine-induced nitrite release, dose response, cell-based, Griess absorbance, INS-1E, dry powder, set 2 (AID 488868); assay type: functional; settings: Rattus norvegicus
[7] = Vero cell cytotoxicity, cytotoxicity control for M. tuberculosis inhibitor project, purified and synthesized samples, set 8 (AID 602431); assay type: functional; settings: Mycobacterium tuberculosis
[8] = THP-1 cell cytotoxicity, cytotoxicity control, set 6 (AID 602433); assay type: functional; settings: Mycobacterium tuberculosis

Apoptotic protease-activating factor 1, sequence (O14727 whole entry): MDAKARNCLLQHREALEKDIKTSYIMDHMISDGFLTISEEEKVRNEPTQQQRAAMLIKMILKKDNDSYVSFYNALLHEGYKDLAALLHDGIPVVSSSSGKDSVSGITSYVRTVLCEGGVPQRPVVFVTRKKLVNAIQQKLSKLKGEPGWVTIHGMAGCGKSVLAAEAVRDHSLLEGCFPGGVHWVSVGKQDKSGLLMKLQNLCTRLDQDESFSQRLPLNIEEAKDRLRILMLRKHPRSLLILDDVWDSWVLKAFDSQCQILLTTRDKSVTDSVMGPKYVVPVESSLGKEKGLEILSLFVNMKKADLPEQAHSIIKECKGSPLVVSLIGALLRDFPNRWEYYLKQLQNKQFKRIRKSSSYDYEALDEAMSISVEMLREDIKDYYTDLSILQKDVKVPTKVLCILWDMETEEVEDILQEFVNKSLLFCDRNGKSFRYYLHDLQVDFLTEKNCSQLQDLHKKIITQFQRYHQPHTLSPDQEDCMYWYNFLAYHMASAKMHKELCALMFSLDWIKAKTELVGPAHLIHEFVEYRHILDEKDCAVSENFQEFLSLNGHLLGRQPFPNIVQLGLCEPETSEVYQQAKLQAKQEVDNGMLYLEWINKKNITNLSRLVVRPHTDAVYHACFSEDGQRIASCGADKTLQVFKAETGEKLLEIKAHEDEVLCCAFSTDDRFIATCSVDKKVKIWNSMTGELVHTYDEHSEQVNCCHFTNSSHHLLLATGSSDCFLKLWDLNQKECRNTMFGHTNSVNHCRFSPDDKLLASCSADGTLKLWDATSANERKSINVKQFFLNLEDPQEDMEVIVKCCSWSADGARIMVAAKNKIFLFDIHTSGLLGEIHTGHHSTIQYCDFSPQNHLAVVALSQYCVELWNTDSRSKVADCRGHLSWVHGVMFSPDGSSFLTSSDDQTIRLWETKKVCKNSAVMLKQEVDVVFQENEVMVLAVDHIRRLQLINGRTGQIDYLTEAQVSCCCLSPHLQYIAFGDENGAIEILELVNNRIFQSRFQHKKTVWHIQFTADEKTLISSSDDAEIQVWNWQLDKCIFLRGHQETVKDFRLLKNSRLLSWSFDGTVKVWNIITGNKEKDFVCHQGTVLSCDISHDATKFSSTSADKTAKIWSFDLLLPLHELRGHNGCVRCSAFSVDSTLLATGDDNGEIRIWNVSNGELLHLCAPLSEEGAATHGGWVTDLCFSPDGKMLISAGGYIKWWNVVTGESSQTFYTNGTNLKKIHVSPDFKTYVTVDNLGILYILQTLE
Glycogen synthase kinase-3 beta, sequence (P49841 whole entry): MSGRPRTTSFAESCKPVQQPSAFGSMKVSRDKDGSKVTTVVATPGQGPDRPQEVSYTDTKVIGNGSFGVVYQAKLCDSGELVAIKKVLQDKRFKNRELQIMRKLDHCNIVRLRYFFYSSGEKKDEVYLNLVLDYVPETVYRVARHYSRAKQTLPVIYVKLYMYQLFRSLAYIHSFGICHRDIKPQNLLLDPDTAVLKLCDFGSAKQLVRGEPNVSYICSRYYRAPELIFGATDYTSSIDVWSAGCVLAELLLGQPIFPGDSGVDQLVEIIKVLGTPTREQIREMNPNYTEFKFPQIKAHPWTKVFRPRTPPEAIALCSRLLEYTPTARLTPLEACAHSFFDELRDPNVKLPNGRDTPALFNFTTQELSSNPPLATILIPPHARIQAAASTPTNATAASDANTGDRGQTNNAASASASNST
Glycogen synthase kinase-3 alpha, sequence (P49840 whole entry): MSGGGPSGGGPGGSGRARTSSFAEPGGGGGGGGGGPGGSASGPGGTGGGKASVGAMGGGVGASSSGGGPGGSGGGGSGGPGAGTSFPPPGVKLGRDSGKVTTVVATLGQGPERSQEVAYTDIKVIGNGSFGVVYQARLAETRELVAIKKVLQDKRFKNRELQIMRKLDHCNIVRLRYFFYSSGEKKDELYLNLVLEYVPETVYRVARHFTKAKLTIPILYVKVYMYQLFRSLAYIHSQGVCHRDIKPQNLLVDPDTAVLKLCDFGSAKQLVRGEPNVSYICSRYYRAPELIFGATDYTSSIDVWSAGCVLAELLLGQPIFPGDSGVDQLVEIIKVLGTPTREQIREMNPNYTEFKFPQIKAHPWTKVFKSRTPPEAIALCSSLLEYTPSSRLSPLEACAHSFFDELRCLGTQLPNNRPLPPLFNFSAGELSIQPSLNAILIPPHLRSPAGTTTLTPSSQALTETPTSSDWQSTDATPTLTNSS

## Cc1ccc(-n2nc3ccc(N)cc3n2)cc1Cl
[1]
  IC50: > 100 µM (inactive)

## Nc1nonc1-n1nnc(C(=O)N/N=C/c2ccccc2Cl)c1CN1CCOCC1
[2]
  AC50: 5.64 µM (active)
[3]
  AC50: 2 µM (active)

## COc1ccc(S(=O)(=O)N(C)C[C@@H]2Oc3c(NC(=O)Nc4cccc5ccccc45)cccc3C(=O)N([C@H](C)CO)C[C@H]2C)cc1
[4]
  AC50: 18.4 µM (active)
[5]
  AC50: > 235 µM (inactive)
[6]
  AC50: 74.5 µM (active)

## COc1ccc(NC(=O)NCc2ccc(C(=O)N3CCC(c4ccccc4)CC3)cc2)cc1
[7]
  CC50: 91.3 µM (active)
[8]
  CC50: > 98.9 µM (active)
